# Reference: patent publication US10239871B2, “Compounds and methods for regulating integrins” (ADHAERE PHARMACEUTICALS, INC., priority 2012, dated 2019)
# What was measured:
# [1] = tested on: MAPK signaling (pERK, pJNK) in K562 WT cells; assay: Western blotting of pERK and pJNK in K562 WT cells; format: cell-based, human; details: absence of ligand fibrinogen
# Procedure: K562 WT cells were incubated with LA1, LA2, LA15 (15 μM), or fibrinogen (200 μg) in serum-free medium for 1 hour at 37° C. Cell lysates were resolved on 4-12% NuPAGE Bis-Tris SDS-PAGE gels using MES running buffer and transferred to a polyvinylidene difluoride (PVDF) membrane (ThermoScientific) using established protocols. Membranes were incubated with a 1:1,000 dilution of the anti-phospho-protein antibodies (anti phospho-p44/42 MAPK (pERK1/2) antibody (Thr202/Tyr204, Cell Signaling) or anti-phospho-SAPK/JNK (pJNK) antibody (Thr183/Tyr185, Cell Signaling #81E11)), or with an antibody against either total ERK1/2 (p44/42 MARK (Erk1/2), Cell Signaling #137F5) or total JNK (SAPK/JNK, Cell Signaling #56G8) and developed according to the manufacturer's instructions (ThermoScientific). Proteins were quantified by densitometry using ImageJ software. […]
# Second, an effect of integrin ligation, macro clustering and redistribution in the plasma membrane is the triggering of outside-in intracellular signaling in cells via various MAPKs. […] In FIGS. 6A-6B, immunoblot results from two independent experiments were quantified using ImageJ software and ratio of phosphorylated protein to total protein was determined. Histograms showing this quantitation for each set are also shown. […] In FIGS. 6C-6D, immunoblot results from two independent experiments were quantified and are also shown, as in 6A and 6B.
# Cl66 cells = assay: Cl66 tumor re-growth after irradiation; format: in vivo, mice
# Procedure: Data shown are means±SEM. *, P<0.05; **, P<0.001 (by one-way ANOVA). In this experiment, four groups of tumor-bearing animals were used (n=11/group): 1) Treatment with saline alone (red line), 2) Treatment with leukadherins LA1 alone (orange line), 3) Treatment with a single dose of 20 Gy irradiation (two 10%+10% vertices) alone (black line) and 4) Treatment with a single dose of 20 Gy irradiation and then daily LA1 (at −2 hours) (blue line). The syngeneic murine mammary adenocarcinoma cell line Cl66 (moderately metastatic and is related to the highly metastatic 4T1 cell line) was orthotopically introduced in Balb/c animals, by injecting approximately 5×10^5 Cl66 cells under the left mammary fat pad of WT BALB/c mice (approximately 10 weeks old). The tumor size was measured using calipers every other day until the end of the experiment (approximately 5 weeks). 7-days post implantation, the tumors in all animals became palpable, with an average size of ˜100 mm3. At that time, animals in groups 3 and 4 were treated with irradiation. Animals in group 4 received LA1, starting at 2 hours prior to irradiation. […]
# A syngeneic xenograft model was used to address the effects of inflammatory cell recruitment on tumor cell re-growth after radio-therapy. […] The tumor size was measured using calipers every other day until the end of the experiment (approximately 5 weeks). […]
# [2] = tested on: hematopoiesis and HSC compartment; assay: Hematopoiesis and HSC compartment after 6 Gy total body irradiation; format: in vivo, mice; details: 1 mg/kg i.p. 7 days from 24 hours post 6 Gy TBI; 4 weeks post TBI
# Procedure: FIGS. 26A-26C show the analysis of hematopoiesis and HSC compartment in LA1 (Red bars), Vehicle control (Blue bars) treated groups of mice at 4 weeks after 6 Gy of total body irradiation (TBI), showing that LA1 is highly radio-protective and a radio-mitigator. […] Mice were exposed to 6 Gy of TBI (at 0.5 Gy/min), and treated intraperitoneally (i.p.) with LA1 (1 mg/kg) or vehicle alone for 7 consecutive days starting at 24 hours post TBI.
# T-cell proliferation = assay: Mixed lymphocyte reaction (MLR); format: cell-based
compound,measurement,setting,value
O=C(O)c1ccc(-c2ccc(/C=C3\SC(=S)N(Cc4ccccc4)C3=O)o2)cc1 [LA1],phosphorylated ERK (pERK) and phosphorylated JNK (pJNK),[1],did not induce any significant pERK or pJNK
same,"rate of tumor growth, LA1 alone without irradiation",Cl66 cells; similar to irradiation alone,reduced rate of tumor growth
same,rate of tumor growth post-irradiation,Cl66 cells; single dose 20 Gy plus LA1 from -2 hours,significant reduction in the rate of tumor growth post-irradiation
same,"HSC analysis (BM cellularity, frequency of LKS+ BM cells and LKS+ CD150+ CD48− BM cells)",[2],significant improvement
same,T-cell proliferation,T-cell proliferation,dose-dependently reduces T-cell proliferation
